Test system: MOLT-4 cells
Assay: Cell proliferation activity in MOLT-4 cells (72 h, cell viability luminescence)
Format: cell-based, human
Settings: Homo sapiens, read-out: IC50 for the inhibition of MOLT-4 cell proliferation
Description: MOLT-4 cells are acute lymphoblastic leukemia cell lines in humans. The cells were purchased from ATCC. Culture conditions: RPMI-1640+10% FBS+1% penicillin-streptomycin solution. The cells were cultured in a 37° C., 5% CO2 incubator. The cells were plated in a 96-well plate, with 5×10^3 cells/well. After plating, compounds at different concentrations were added and cultured in a 37° C., 5% CO2 incubator for 72 h. After the completion of culture, a reagent (Promega, G7573) for detecting the cell viability was added. The mixture was uniformly mixed for 2 minutes and then incubated at room temperature for 10 minutes. The luminescence signal was detected with a multimode plate reader (BMG, PHERAstar FSX). The luminescence readings were processed using GraphPad Prism 8.0 software and the IC50 values of the compounds for the inhibition of cell proliferation and the maximum inhibition rate were calculated according to formula (2) and formula (3), respectively, wherein Tadministration denotes the cell signal readings obtained after incubation with the compounds for 72 h, and Tvehicle denotes the cell signal readings obtained after incubation with the vehicle control for 72 h.
Calculation of Max inhibition %: after the processing according to formula (2), the inhibition rate of the compounds at the highest concentration was calculated.

IC50 | Compound
< 500 nM | Cc1ncsc1-c1ccc([C@H](C)NC(=O)[C@@H]2C[C@@H](O)CN2C(=O)[C@@H](NC(=O)CCCCCC(=O)N2CC3CC2CN3CC[C@H](CSc2ccccc2)Nc2ccc(S(=O)(=O)NC(=O)c3ccc(N4CCN(CC5=C(c6ccc(Cl)cc6)CCC(C)(C)C5)CC4)cc3)cc2S(=O)(=O)C(F)(F)F)C(C)(C)C)cc1 (stereo partly drawn) [Compound 2, (2S,4R)-1-((2S)-2-(7-(5-((R)-3-((4-(N-(4-(4-((4′-chloro-4,4-dimethyl-3,4,5,6-tetrahydro-[1,1′-biphenyl]-2-yl)methyl)piperazin-1-yl)benzoyl)sulfamoyl)-2-((trifluoromethyl)sulfonyl)phenyl)amino)-4-(phenylthio)butyl)-2,5-diazabicyclo[2.2.1]heptan-2-yl)-7-oxoheptanamido)-3,3-dimethylbutanoyl)-4-hydroxy-N—((S)-1-(4-(4-methylthiazol-5-yl)phenyl)ethyl)pyrrolidine-2-carboxamide]
< 500 nM | Cc1ncsc1-c1ccc([C@H](C)NC(=O)[C@@H]2C[C@@H](O)CN2C(=O)[C@@H](NC(=O)CCCCCC(=O)N2CCN(CC[C@H](CSc3ccccc3)Nc3ccc(S(=O)(=O)NC(=O)c4ccc(N5CCN(CC6=C(c7ccc(Cl)cc7)CCOC6)CC5)cc4)cc3S(=O)(=O)C(F)(F)F)CC2)C(C)(C)C)cc1 [Compound 5, (2S,4R)-1-((S)-2-(7-(4-((R)-3-((4-(N-(4-(4-((4-(4-chlorophenyl)-5,6-dihydro-2H-pyran-3-yl)methyl)piperazin-1-yl)benzoyl)sulfamoyl)-2-((trifluoromethyl)sulfonyl)phenyl)amino)-4-(phenylthio)butyl)piperazin-1-yl)-7-oxoheptanamido)-3,3-dimethylbutanoyl)-4-hydroxy-N—((S)-1-(4-(4-methylthiazol-5-yl)phenyl)ethyl)pyrrolidine-2-carboxamide]
< 500 nM | Cc1ncsc1-c1ccc([C@H](C)NC(=O)[C@@H]2C[C@@H](O)CN2C(=O)[C@@H](NC(=O)CCCCCC(=O)N2CCN(CC[C@H](CSc3ccccc3)Nc3ccc(S(=O)(=O)NC(=O)c4ccc(N5CCN(CC6=C(c7ccc(Cl)cc7)CCC(C)(C)C6)CC5)nc4)cc3S(=O)(=O)C(F)(F)F)CC2)C(C)(C)C)cc1 [Compound 7, 6-(4-((4′-chloro-4,4-dimethyl-3,4,5,6-tetrahydro-[1,1′-biphenyl]-2-yl)methyl)piperazin-1-yl)-N-((4-(((R)-4-(4-(7-(((S)-1-((2S,4R)-4-hydroxy-2-(((S)-1-(4-(4-methylthiazol-5-yl)phenyl)ethyl)carbamoyl)pyrrolidin-1-yl)-3,3-dimethyl-1-oxobutan-2-yl)amino)-7-oxoheptanoyl)piperazin-1-yl)-1-(phenylthio)butan-2-yl)amino)-3-((trifluoromethyl)sulfonyl)phenyl)sulfonyl)nicotinamide]
< 500 nM | Cc1ncsc1-c1ccc([C@H](C)NC(=O)[C@@H]2C[C@@H](O)CN2C(=O)[C@@H](NC(=O)CCCCCC(=O)N2CCN(CC[C@H](CSc3ccccc3)Nc3ccc(S(=O)(=O)NC(=O)c4ccc(N5CCN(CC6=C(c7ccc(Cl)cc7F)CCC(C)(C)C6)CC5)cc4)cc3S(=O)(=O)C(F)(F)F)CC2)C(C)(C)C)cc1 [Compound 12, (2S,4R)-1-((S)-2-(7-(4-((R)-3-((4-(N-(4-(4-((4′-chloro-2′-fluoro-4,4-dimethyl-3,4,5,6-tetrahydro-[1,1′-biphenyl]-2-yl)methyl)piperazin-1-yl)benzoyl)sulfamoyl)-2-((trifluoromethyl)sulfonyl)phenyl)amino)-4-(phenylthio)butyl)piperazin-1-yl)-7-oxoheptanamido)-3,3-dimethylbutanoyl)-4-hydroxy-N—((S)-1-(4-(4-methylthiazol-5-yl)phenyl)ethyl)pyrrolidine-2-carboxamide]

From patent publication US20240408085A1, “COMPOUND FOR DEGRADATION OF BCL-2 FAMILY PROTEINS AND MEDICAL APPLICATION THEREOF” (XIZANG HAISCO PHARMACEUTICAL CO., LTD., priority 2021, published 2024)
